Results as given in ChEMBL document CHEMBL1147344, “New Chlorophyll-A-Related Compounds Isolated as Antioxidants from Marine Bivalves” (J Nat Prod, 1993).
The source made the active and inactive calls. The calls are words filed in the database; no cut-off is given here.

Experiment: Antioxidant activity assessed as inhibition of lipid peroxidation at 20 ug incubated at 40 degC in dark by paper disk method
Format: functional

Compound	Activity
Cc1c(C)c2c(c(C)c1O)CC[C@@](C)(CCC[C@H](C)CCC[C@H](C)CCCC(C)C)O2	Active

Experiment: Antioxidant activity assessed as inhibition of lipid peroxidation at 3 ug incubated at 40 degC in dark by paper disk method
Format: functional

Compound	Activity
C=Cc1c(C)c2cc3nc(c4c5[nH]c(cc6nc(cc1[nH]2)C(C)=C6CC)c(C)c5C(=O)OC4=O)[C@@H](CCC(=O)OC)[C@@H]3C	Active
C=Cc1c(C)c2cc3nc4c(c5[nH]c(cc6nc(cc1[nH]2)C(C)=C6CC)c(C)c5C(=O)OC)C(=O)C(=O)CC[C@H]4[C@@H]3C	Active
C=Cc1c(C)c2cc3nc4c5c6[nH]c(cc7nc(cc1[nH]2)C(C)=C7CC)c(C)c6C(=O)O[C@@]5(O)C(=O)CC[C@H]4[C@@H]3C	Active
C=Cc1c(C)c2cc3nc(c4c5[nH]c(cc6nc(cc1[nH]2)C(C)=C6CC)c(C)c5C(=O)OC4=O)[C@@H](CCC(=O)O)[C@@H]3C	Active
C=Cc1c(C)c2cc3nc(c4c5[nH]c(cc6nc(cc1[nH]2)C(C)=C6CC)c(C)c5C(=O)C4=O)[C@@H](CCC(=O)O)[C@@H]3C	Active
C=Cc1c(C)c2cc3nc(c4c5[nH]c(cc6nc(cc1[nH]2)C(C)=C6CC)c(C)c5C(=O)C4)[C@@H](CCC(=O)O)[C@@H]3C	Active
C=Cc1c(C)c2cc3nc4c5c6[nH]c(cc7nc(cc1[nH]2)C(C)=C7CC)c(C)c6C(=O)[C@@]5(O)C(=O)CC[C@H]4[C@@H]3C	Active

Experiment: Antioxidant activity assessed as inhibition of lipid peroxidation in dark at 40 degC by paper disk method
Format: functional

Compound	Activity
C=Cc1c(C)c2cc3nc4c5c6[nH]c(cc7nc(cc1[nH]2)C(C)=C7CC)c(C)c6C(=O)[C@]5(O)C(=O)CC[C@H]4[C@@H]3C	Active
